Like-named read-outs stand apart in the source and are kept apart here.
Assays:
Assay type in all cases: cell-based
[1] = biological target: AXL (phospho-AXL, Gas6-stimulated A-172 glioblastoma cells) (Homo sapiens (Human), UniProt P30530); test: AXL autophosphorylation ELISA in A-172 cells (Example E); settings: cellular activity, read-out: Axl IC50
Procedure, shortened: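 Phospho-AXL was measured by ELISA in lysates of Gas6-stimulated A-172 cells, starved 24 h in serum-free medium and exposed 1 h to an 8-point compound dilution at 0.3% DMSO.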

[2] = biological target: Met (phospho-Met, HGF-stimulated PC-3 prostate cancer cells) (Homo sapiens (Human), UniProt P08581); test: Met autophosphorylation ELISA in PC-3 cells (Example F); settings: cellular activity, read-out: c-Met IC50
Met (phospho-Met, HGF-stimulated PC-3 prostate cancer cells), sequence (P08581 25-1390): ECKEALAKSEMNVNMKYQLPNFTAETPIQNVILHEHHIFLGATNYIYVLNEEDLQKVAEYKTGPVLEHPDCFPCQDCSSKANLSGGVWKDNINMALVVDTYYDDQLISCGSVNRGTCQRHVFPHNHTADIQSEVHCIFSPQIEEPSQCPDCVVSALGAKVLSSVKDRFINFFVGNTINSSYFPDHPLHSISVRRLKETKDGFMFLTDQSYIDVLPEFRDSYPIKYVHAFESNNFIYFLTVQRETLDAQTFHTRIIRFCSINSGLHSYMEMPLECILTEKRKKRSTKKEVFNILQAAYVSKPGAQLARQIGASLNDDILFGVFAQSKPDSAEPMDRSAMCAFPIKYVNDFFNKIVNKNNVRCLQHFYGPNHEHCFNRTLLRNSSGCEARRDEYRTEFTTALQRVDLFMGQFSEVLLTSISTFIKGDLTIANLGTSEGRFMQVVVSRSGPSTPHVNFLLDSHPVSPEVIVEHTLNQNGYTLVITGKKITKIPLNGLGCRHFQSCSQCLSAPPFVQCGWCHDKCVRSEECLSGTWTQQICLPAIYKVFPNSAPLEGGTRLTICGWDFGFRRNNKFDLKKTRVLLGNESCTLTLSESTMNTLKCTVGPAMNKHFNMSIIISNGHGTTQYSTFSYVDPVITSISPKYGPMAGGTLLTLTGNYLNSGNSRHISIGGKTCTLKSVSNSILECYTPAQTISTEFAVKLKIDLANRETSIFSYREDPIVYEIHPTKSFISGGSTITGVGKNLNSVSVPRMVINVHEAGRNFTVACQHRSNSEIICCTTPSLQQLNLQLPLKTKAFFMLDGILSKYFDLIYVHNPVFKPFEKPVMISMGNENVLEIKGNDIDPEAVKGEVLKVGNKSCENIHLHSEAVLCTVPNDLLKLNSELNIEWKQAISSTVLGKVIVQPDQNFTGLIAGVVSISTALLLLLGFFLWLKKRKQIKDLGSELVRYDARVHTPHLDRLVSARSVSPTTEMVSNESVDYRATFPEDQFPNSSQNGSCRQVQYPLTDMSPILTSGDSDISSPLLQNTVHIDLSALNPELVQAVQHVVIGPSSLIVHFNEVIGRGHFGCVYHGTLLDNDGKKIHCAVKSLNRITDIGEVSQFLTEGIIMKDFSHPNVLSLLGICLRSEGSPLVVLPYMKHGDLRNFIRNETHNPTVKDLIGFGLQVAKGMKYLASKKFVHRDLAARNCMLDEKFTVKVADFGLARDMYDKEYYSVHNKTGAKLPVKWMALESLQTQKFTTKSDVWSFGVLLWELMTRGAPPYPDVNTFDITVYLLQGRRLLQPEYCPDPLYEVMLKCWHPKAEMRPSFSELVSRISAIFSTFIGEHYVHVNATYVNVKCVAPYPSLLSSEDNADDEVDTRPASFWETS
Procedure, shortened: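 PC-3 cells, serum-starved 3 h, were treated with compounds (8-point dose curve, 0.3% DMSO final) for 1 h, then stimulated with 100 ng/mL recombinant human HGF for 10 min. Lysate phospho-Met (panTyr) was quantified by sandwich ELISA; IC50 from 4-parameter logistic fit.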

[3] = biological target: KDR (phospho-KDR, VEGF165-stimulated HUVEC cells) (Homo sapiens (Human), UniProt P35968); test: KDR autophosphorylation ELISA in HUVEC cells (Example G); settings: cellular activity
KDR (phospho-KDR, VEGF165-stimulated HUVEC cells), sequence (P35968 20-1356): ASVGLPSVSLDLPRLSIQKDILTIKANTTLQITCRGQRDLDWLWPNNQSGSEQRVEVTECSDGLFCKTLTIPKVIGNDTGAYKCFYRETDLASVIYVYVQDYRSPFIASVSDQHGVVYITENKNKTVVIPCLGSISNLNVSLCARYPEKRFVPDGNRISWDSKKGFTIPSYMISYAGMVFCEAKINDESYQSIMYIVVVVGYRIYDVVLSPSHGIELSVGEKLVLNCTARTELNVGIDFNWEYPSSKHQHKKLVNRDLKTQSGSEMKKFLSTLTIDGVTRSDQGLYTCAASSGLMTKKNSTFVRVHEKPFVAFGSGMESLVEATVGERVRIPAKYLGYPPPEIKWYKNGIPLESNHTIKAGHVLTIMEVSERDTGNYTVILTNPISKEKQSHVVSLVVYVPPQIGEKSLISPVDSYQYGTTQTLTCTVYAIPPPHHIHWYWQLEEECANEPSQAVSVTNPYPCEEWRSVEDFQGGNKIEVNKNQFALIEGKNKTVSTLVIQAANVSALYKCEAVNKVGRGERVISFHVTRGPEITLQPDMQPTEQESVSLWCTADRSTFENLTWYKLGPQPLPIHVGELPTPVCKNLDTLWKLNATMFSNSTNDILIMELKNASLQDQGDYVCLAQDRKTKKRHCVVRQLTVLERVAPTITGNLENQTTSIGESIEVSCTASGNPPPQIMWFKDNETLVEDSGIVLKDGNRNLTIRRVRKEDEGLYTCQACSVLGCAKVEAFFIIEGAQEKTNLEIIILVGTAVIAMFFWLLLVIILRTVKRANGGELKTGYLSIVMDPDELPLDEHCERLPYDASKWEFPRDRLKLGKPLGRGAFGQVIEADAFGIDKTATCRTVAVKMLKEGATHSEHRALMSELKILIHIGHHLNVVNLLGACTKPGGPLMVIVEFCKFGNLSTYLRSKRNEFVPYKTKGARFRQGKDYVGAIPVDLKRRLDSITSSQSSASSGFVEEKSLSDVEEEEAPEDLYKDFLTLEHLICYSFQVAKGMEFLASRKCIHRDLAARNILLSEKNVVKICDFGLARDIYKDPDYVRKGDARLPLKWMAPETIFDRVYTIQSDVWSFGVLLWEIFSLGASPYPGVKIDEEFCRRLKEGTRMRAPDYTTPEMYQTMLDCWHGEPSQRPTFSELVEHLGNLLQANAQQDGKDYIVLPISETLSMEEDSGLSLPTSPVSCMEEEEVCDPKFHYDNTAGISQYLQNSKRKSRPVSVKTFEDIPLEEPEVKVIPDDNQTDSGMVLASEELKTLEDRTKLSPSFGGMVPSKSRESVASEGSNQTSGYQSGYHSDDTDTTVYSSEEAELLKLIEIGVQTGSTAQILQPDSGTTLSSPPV
Procedure, shortened: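 Inhibition of VEGF165-driven KDR autophosphorylation is measured in primary human umbilical vein endothelial cells after 24 h serum deprivation. Compound preincubation lasts 1 h before a 5-minute challenge with 100 ng/mL ligand, and phosphorylated receptor is then measured by ELISA in the lysates.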

[4] = biological target: Mer (phospho-Mer, MERTK-transfected 293A cells) (Homo sapiens (Human), UniProt Q12866); test: Mer autophosphorylation ELISA in transient transfected 293A cells (Example H); settings: cellular activity
Mer (phospho-Mer, MERTK-transfected 293A cells), sequence (Q12866 21-999): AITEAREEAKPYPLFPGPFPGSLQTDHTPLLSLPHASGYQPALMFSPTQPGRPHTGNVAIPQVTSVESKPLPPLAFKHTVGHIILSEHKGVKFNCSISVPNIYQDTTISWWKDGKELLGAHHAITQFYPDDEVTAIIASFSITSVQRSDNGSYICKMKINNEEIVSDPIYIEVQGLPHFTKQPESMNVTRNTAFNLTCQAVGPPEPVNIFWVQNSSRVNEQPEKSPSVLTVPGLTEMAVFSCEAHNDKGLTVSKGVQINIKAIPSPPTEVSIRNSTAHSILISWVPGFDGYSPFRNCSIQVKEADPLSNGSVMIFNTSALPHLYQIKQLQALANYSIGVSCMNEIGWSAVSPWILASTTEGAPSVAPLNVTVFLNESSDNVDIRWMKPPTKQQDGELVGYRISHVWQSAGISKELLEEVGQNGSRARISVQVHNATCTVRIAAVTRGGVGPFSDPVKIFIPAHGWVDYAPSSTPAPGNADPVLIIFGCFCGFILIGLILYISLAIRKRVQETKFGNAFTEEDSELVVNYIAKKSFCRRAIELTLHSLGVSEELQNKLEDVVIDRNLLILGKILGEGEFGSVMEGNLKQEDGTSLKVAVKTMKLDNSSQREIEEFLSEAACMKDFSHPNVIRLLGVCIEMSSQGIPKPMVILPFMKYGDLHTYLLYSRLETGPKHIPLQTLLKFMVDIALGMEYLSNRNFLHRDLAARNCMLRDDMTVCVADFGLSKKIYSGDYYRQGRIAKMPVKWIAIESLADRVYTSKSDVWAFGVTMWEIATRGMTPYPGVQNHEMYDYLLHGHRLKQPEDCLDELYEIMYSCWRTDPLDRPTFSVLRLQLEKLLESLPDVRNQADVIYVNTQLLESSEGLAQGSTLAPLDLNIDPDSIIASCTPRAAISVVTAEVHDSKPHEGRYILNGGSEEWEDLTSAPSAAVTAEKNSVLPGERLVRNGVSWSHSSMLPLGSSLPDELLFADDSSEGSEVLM
Procedure, shortened: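 MERTK-transfected 293A; 8-pt dose, 1 h, serum-free, 0.3% DMSO. Cold lysis with orthovanadate and protease/phosphatase inhibitors. Phospho-Mer by DuoSet IC ELISA vs phospho-Mer standard. IC50: 4-PL fit; DMSO = 100%, reference inhibitor = 0%.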

[5] = AXL autophosphorylation ELISA in A-172 cells
[6] = Met autophosphorylation ELISA in PC-3 cells
[7] = KDR autophosphorylation ELISA in HUVEC cells
[8] = Mer autophosphorylation ELISA in transient transfected 293A cells

AXL (phospho-AXL, Gas6-stimulated A-172 glioblastoma cells), sequence (P30530 26-894): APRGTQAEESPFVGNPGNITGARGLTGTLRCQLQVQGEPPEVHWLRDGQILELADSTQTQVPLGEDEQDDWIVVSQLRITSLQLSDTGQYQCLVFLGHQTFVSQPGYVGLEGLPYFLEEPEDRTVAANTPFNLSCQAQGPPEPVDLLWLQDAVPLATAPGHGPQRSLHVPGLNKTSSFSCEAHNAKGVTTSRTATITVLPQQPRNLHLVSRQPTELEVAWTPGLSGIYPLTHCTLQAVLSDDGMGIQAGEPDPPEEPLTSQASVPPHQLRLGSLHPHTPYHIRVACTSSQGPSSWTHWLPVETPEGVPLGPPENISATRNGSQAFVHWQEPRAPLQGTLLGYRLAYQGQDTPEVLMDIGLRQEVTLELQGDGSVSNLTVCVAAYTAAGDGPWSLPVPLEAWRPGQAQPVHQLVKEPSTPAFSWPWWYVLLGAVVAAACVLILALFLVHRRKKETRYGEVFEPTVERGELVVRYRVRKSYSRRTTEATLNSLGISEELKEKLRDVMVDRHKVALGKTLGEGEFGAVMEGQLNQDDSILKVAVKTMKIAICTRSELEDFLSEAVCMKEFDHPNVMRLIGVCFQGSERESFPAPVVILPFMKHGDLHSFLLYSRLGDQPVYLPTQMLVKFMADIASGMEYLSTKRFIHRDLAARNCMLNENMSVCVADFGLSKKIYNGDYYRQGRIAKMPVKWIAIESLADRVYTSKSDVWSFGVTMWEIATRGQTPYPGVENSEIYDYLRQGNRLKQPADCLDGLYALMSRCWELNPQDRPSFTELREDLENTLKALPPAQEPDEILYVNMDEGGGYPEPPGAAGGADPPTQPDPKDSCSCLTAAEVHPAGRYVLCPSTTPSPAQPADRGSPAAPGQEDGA

`COCc1nc(C)c(-c2ccc(F)cc2)c(O)c1C(=O)Nc1ccc(Oc2ccnc3cnc(OC)cc23)c(F)c1` [Compound 501, N-[3-Fluoro-4-[(6-methoxy-1,7-naphthyridin-4-yl)oxy]phenyl]-5-(4-fluorophenyl)-4-hydroxy-2-(methoxymethyl)-6-methylpyridine-3-carboxamide] gave an IC50 [1, 5] of less than 100 nM, an IC50 [2, 6] of less than 100 nM and an IC50 [3, 7] of less than 100 nM. For the same compound, the IC50 [4, 8] was less than 100 nM.
For `COc1cc2nccc(Oc3ccc(NC(=O)c4c(C)c(F)cn(-c5ccc(F)cc5)c4=O)cc3)c2nc1OC` [Compound 665, N-[4-[(6,7-dimethoxy-1,5-naphthyridin-4-yl)oxy]phenyl]-5-fluoro-1-(4-fluorophenyl)-4-methyl-2-oxopyridine-3-carboxamide], the IC50 [1, 5] was less than 100 nM, the IC50 [2, 6] was less than 100 nM and the IC50 [3, 7] was 100 to 300 nM. The IC50 [4, 8] was less than 100 nM.
`COc1cnc2c(Oc3ccc(NC(=O)c4c(C)n(CCF)cc(-c5ccc(F)c(C)c5)c4=O)cc3F)ccnc2c1` [Compound 813, 1-(2-fluoroethyl)-N-[3-fluoro-4-[(7-methoxy-1,5-naphthyridin-4-yl)oxy]phenyl]-5-(4-fluoro-3-methylphenyl)-2-methyl-4-oxopyridine-3-carboxamide] showed an IC50 ([1]; A-172 cells) of less than 100 nM, an IC50 ([2]; PC-3 cells) of less than 100 nM and an IC50 ([3]; HUVEC cells) of 100 to 300 nM. For the same compound, the IC50 ([4]; transfected 293A cells) was less than 100 nM.
For `COc1cnc2c(Oc3ccc(NC(=O)c4cnc(C)c(-c5ccc(S(C)(=O)=O)cc5)c4O)cc3F)ccnc2c1` [Compound 697, N-[3-fluoro-4-[(7-methoxy-1,5-naphthyridin-4-yl)oxy]phenyl]-4-hydroxy-6-methyl-5-(4-methylsulfonylphenyl)pyridine-3-carboxamide], the IC50 [1, 5] was greater than 300 nM, the IC50 [2, 6] was 100 to 300 nM and the IC50 [3, 7] was greater than 300 nM. For the same compound, the IC50 [4, 8] was less than 100 nM.
In the case of `C=Cc1c(C)c(C(=O)Nc2ccc(Oc3ccnc4cc(OCCOC)c(OC)nc34)cc2)c(=O)n(-c2ccc(F)cc2)c1C` [Compound 741, 5-ethenyl-1-(4-fluorophenyl)-N-[4-[[6-methoxy-7-(2-methoxyethoxy)-1,5-naphthyridin-4-yl]oxy]phenyl]-4,6-dimethyl-2-oxopyridine-3-carboxamide], the IC50 [1, 5] is reported as less than 100 nM, the IC50 [2, 6] is reported as less than 100 nM and the IC50 [3, 7] is reported as 100 to 300 nM. It also gave an IC50 [4, 8] of less than 100 nM.
For `COCCOc1cc2nccc(Oc3ccc(NC(=O)c4c(C)ccn(-c5ccc(F)cc5)c4=O)cc3)c2nc1OC` [Compound 704, 1-(4-fluorophenyl)-N-[4-[[6-methoxy-7-(2-methoxyethoxy)-1,5-naphthyridin-4-yl]oxy]phenyl]-4-methyl-2-oxopyridine-3-carboxamide], the IC50 [1, 5] was less than 100 nM, the IC50 [2, 6] was less than 100 nM and the IC50 [3, 7] was less than 100 nM. It also gave an IC50 [4, 8] of less than 100 nM.
In the case of `COCc1ccc(C(=O)Nc2ccc(Oc3ccnc4cc(OC)c(OC)nc34)c(F)c2)c(=O)n1-c1ccc(F)cc1` [Compound 358, N-[4-[(6,7-dimethoxy-1,5-naphthyridin-4-yl)oxy]-3-fluorophenyl]-1-(4-fluorophenyl)-6-(methoxymethyl)-2-oxopyridine-3-carboxamide], the IC50 [1, 5] is reported as less than 100 nM, the IC50 [2, 6] is reported as less than 100 nM and the IC50 [3, 7] is reported as less than 100 nM. The IC50 [4, 8] was less than 100 nM.
Work on `CCOc1nc2c(Oc3ccc(NC(=O)c4cnc(C)c(-c5ccc(F)cc5C)c4O)cc3)ccnc2cc1OC` [Compound 673, N-[4-[(6-ethoxy-7-methoxy-1,5-naphthyridin-4-yl)oxy]phenyl]-5-(4-fluoro-2-methylphenyl)-4-hydroxy-6-methylpyridine-3-carboxamide] yielded an IC50 [1, 5] of less than 100 nM, an IC50 [2, 6] of less than 100 nM and an IC50 [3, 7] of less than 100 nM. It also gave an IC50 [4, 8] of less than 100 nM.
Work on `COc1cnc2c(Oc3ccc(NC(=O)c4cn(C(F)F)c(C)c(-c5ccc(F)cc5)c4=O)cc3)ccnc2c1` [Compound 669, 1-(difluoromethyl)-5-(4-fluorophenyl)-N-[4-[(7-methoxy-1,5-naphthyridin-4-yl)oxy]phenyl]-6-methyl-4-oxopyridine-3-carboxamide] yielded an IC50 [1, 5] of less than 100 nM, an IC50 [2, 6] of less than 100 nM and an IC50 [3, 7] greater than 300 nM. It also gave an IC50 [4, 8] of less than 100 nM.
`COc1cnc2c(Oc3ccc(NC(=O)c4c(C)ncc(-c5ccc(F)c(F)c5)c4O)cc3F)ccnc2c1` [Compound 797, 5-(3,4-difluorophenyl)-N-[3-fluoro-4-[(7-methoxy-1,5-naphthyridin-4-yl)oxy]phenyl]-4-hydroxy-2-methylpyridine-3-carboxamide] was tested, and the IC50 [1, 5] was less than 100 nM, the IC50 [2, 6] was less than 100 nM and the IC50 [3, 7] was less than 100 nM. For the same compound, the IC50 [4, 8] was less than 100 nM.
`COCCOc1cc2nccc(Oc3ccc(NC(=O)c4c(C)nc(C)c(-c5ccc(F)cc5C)c4O)cc3)c2nc1OC` [Compound 725, 5-(4-fluoro-2-methylphenyl)-4-hydroxy-N-[4-[[6-methoxy-7-(2-methoxyethoxy)-1,5-naphthyridin-4-yl]oxy]phenyl]-2,6-dimethylpyridine-3-carboxamide] showed an IC50 [1, 5] of less than 100 nM, an IC50 [2, 6] of less than 100 nM and an IC50 [3, 7] of less than 100 nM. It also gave an IC50 [4, 8] of less than 100 nM.
Work on `COCCOc1nc2c(Oc3ccc(NC(=O)c4ccc(C)n(-c5ccc(F)cc5)c4=O)cc3F)ncnc2cc1OC` [Compound 650, N-[3-fluoro-4-[7-methoxy-6-(2-methoxyethoxy)pyrido[3,2-d]pyrimidin-4-yl]oxyphenyl]-1-(4-fluorophenyl)-6-methyl-2-oxopyridine-3-carboxamide] yielded an IC50 [1, 5] of less than 100 nM, an IC50 [2, 6] of less than 100 nM and an IC50 [3, 7] of less than 100 nM. It also gave an IC50 [4, 8] of less than 100 nM.
Work on `COc1cnc2c(Oc3ccc(NC(=O)c4c5n(c(C)c(-c6ccc(F)cc6)c4=O)CCOC5)cc3F)ccnc2c1` [Compound 783, N-[3-fluoro-4-[(7-methoxy-1,5-naphthyridin-4-yl)oxy]phenyl]-7-(4-fluorophenyl)-6-methyl-8-oxo-3,4-dihydro-1H-pyrido[2,1-c][1,4]oxazine-9-carboxamide] yielded an IC50 [1, 5] of less than 100 nM, an IC50 [2, 6] of less than 100 nM and an IC50 [3, 7] greater than 300 nM. For the same compound, the IC50 [4, 8] was less than 100 nM.
`COc1cc2nccc(Oc3ccc(NC(=O)c4c(C)c(C(N)=O)c(C)n(-c5ccc(F)cc5)c4=O)cc3F)c2nc1OC` [Compound 318, 5-N-[4-[(6,7-Dimethoxy-1,5-naphthyridin-4-yl)oxy]-3-fluorophenyl]-1-(4-fluorophenyl)-2,4-dimethyl-6-oxopyridine-3,5-dicarboxamide] showed an IC50 [1, 5] of less than 100 nM, an IC50 [2, 6] of less than 100 nM and an IC50 [3, 7] greater than 300 nM. The IC50 [4, 8] was less than 100 nM.
`CNc1nccc2c(Oc3ccc(NC(=O)c4cnc(C)c(-c5ccc(F)cc5)c4O)cc3)ccnc12` [Compound 387, 5-(4-fluorophenyl)-4-hydroxy-6-methyl-N-[4-[[8-(methylamino)-1,7-naphthyridin-4-yl]oxy]phenyl]pyridine-3-carboxamide] gave an IC50 [1, 5] of less than 100 nM, an IC50 [2, 6] of less than 100 nM and an IC50 [3, 7] of less than 100 nM. It also gave an IC50 [4, 8] of less than 100 nM.
With `COc1cc2nccc(Oc3ccc(NC(=O)c4c(C)c(Br)c(C)n(-c5ccc(F)cc5)c4=O)cc3)c2nc1OC` [Compound 313, 5-Bromo-N-[4-[(6,7-dimethoxy-1,5-naphthyridin-4-yl)oxy]phenyl]-1-(4-fluorophenyl)-4,6-dimethyl-2-oxopyridine-3-carboxamide] the IC50 [1, 5] was less than 100 nM, the IC50 [2, 6] was less than 100 nM and the IC50 [3, 7] was less than 100 nM. The IC50 [4, 8] was less than 100 nM.
Work on `COc1cnc2c(Oc3c(F)cc(NC(=O)c4c(C)nc(C)c(-c5ccc(F)cc5C)c4O)cc3F)ccnc2c1` [Compound 767, N-[3,5-difluoro-4-[(7-methoxy-1,5-naphthyridin-4-yl)oxy]phenyl]-5-(4-fluoro-2-methylphenyl)-4-hydroxy-2,6-dimethylpyridine-3-carboxamide] yielded an IC50 [1, 5] of less than 100 nM, an IC50 [2, 6] of less than 100 nM and an IC50 [3, 7] of less than 100 nM. For the same compound, the IC50 [4, 8] was less than 100 nM.
